Reference: patent US20260231848A1, “A METHOD OF TREATING SEEDS AND SEEDS PRODUCED THEREBY” (RESEARCH FOUNDATION OF THE CITY UNIVERSITY OF NEW YORK, priority 2023, published 2026)

Columns and labels:
[1] = Dissolution of the compounds for the stock solution; assay type: physicochemical; conditions: stock solution of 100 mM; visible observation
Description: In order to select the optimum concentration of NOSH and NOSH-ASA, a concentration gradient was performed. To achieve the gradient, a stock solution of 100 mM was prepared. […] Therefore, it was decided to prepare a stock solution using 100% DMSO and then dilute the composition to 0.1% DMSO.

[2] = system: Arabidopsis thaliana seeds (ecotype Col-0); test: Seed treatment at pre-germination stage, plant growth (rosette fresh weight, projected rosette area); assay type: in vivo; conditions: for concentration resulting in highest increase in fresh weight: screening at concentration gradient 0-100 μM, rosettes 22 DAS, seeds soaked 12 hrs
Description: Stock solutions of NOSH or NOSH-ASA were each prepared by initial dissolution in 100% DMSO. From each stock solution, treatment compositions at a 0-100 μM concentration gradient (diluted in 0.1% v/v DMSO) were prepared. Arabidopsis thaliana seeds (ecotype Col-0) were treated at their pre-germination stage with different concentrations of NOSH or NOSH-aspirin solutions (0-100 μM concentration gradient) by soaking the seeds in Petri dishes at room temperature and in the dark. After 12 hrs, the seeds were air dried for 2-3 hrs. Four seeds per pot were sown in soil medium and stratified at 4° C. for 4 days to achieve germination uniformity. Then the pots were transferred to the growth room and allowed to grow under controlled conditions of 22° C., and a 16-hr day (100-120 μmol m^−2 s^−1)/8-hr night regime for 22 days (d). Nine Days After Stratification (DAS), one seedling, which had the projected rosette area closest to the median area of the treatment, was selected from the four seedlings sown per pot. Four independent experiments were carried out using a minimum of 6-8 independent plants as replicates per experiment. Projected Rosette Area (PRA) was determined by taking pictures of the rosettes 22 days after stratification (DAS). The pictures were subsequently analyzed using ImageJ software (http://rsb.info.nih.gov/ij/) to measure the size of each plant. Represented rosette sizes were calculated by taking the average of the individual plant per repeat and then per treatment. The same rosettes were used also for fresh weight measurements. In this connection it is noted that in preliminary experiments no substantial differences between the ratio of fresh weight and the ratio of dry weight under optimum soil water content was observed. Statistical analysis was performed with SAS (Version 9.4 of the SAS System for windows 7 64 bit by using the mixed model analysis. Copyright C 2002-2012 SAS Institute Inc. Cary, NC, USA (www.sas.com). Seeds were treated by seed soaking for 12 hr with NOSH at 50 μM. Four seeds were then sown in soil medium within a pot and allowed to grow for 22 days under the conditions described above.

[3] = system: tomato seeds (4 different varieties); test: Tomato seed priming under salt stress conditions; assay type: in vivo; conditions: for fruit yield per plant: 50 μM in 0.1% DMSO, seeds soaked 12 hours, vs untreated, hydroprimed, solvent-treated seeds
Description: A experiment has been carried out, whereby the effect of NOSH-A pre-treatment of tomato seeds was examined under salt stress conditions. The treatments were as follows: • Untreated tomato seeds (4 different varieties—CV1-4) • Hydroprimed seeds (soaked in dH2O) • NOSH-A control treated seeds (soaked in 0.1% DMSO) • NOSH-A primed seeds NOSH-A was initially prepared in a stock solution of 50 mM using DMSO. The working solution was made by diluting the stock in water to reach a final concentration of 50 μM in 0.1% DMSO. Seed priming was performed by soaking the seeds in NOSH-A solution for 12 hours at 25° C. Then the seeds were placed in gauze under the laminar flow for air-drying, till reaching their initial weight. The seeds were sown in plastic seedling trays (1 seed per pot) filled with sterile soil, covered with a transparent film, and let to germinate in a growth chamber room under certain conditions of 24/20° C. day/night temperatures, 60-70% RH, with a photosynthetic photon flux density of 120 μmol m^2 s^−1 and a 16/8-h photoperiod. At day 7 after sowing, seedlings were transplanted into square plastic pots filled with sterilized pot soil, transferred into a glasshouse, and let to grow until day 24. Growing plants were watered three times per week. Plants were then watered with saline solution (7.8-12.0 dS/m), while controls were watered with dH2O, until fruiting. A total of four harvests were carried out, with yield data being the total of the four harvesting events. All analyses were carried out using six independent plants per treatment.

[4] = system: baby spinach cultivars (Sunangel RZ, Scarne F1PV-1656); test: Baby spinach seed priming, growth under heat stress; assay type: in vivo; conditions: day 37-40° C., 50 μM seed priming 12 hours
Description: NOSH-A was initially prepared in a stock solution of 50 mM using DMSO. The working solution was made by diluting the stock in water to reach a final concentration of 50 μM in 0.1% DMSO. Seed priming was performed by soaking the seeds of two baby spinach cultivars (Sunangel RZ, Scarne F1PV-1656) in NOSH-A solution for 12 hours at 25° C. Then the seeds were placed in gauze under the laminar flow for air-drying, till reaching their initial weight. Seeds were sown in the soil in a commercial greenhouse (FIG. 6a), and let to grow until day 30. Average day temperature ranged between 37-40° C., while night temperature ranged between 21-23° C. Growing plants were watered three times per week. All agronomic analyses were carried out using a minimum of nine independent plants per treatment, while survival percentage was calculated from a total of 300 plants per treatment.

[5] = system: plants from treated seeds; test: Stress protection: seed priming by vacuum infiltration, plants left un-watered (drought); assay type: in vivo
Description: Seeds were treated with a NOSH composition comprising 30% methanol and the priming application method was vacuum infiltration (90 sec). […] Plants were growth on optimum condition until 37 days and then were left un-watered for 7 days. Observation on plant phenotype was performed and interesting differences on the plant appearance were recorded. […] This supported the conclusion that NOSH compounds enhance plant tolerance, (probably, however, without being bound to this hypothesis, by avoiding the accumulation of stress-related pigments such as anthocyanin).

[6] = system: Arabidopsis thaliana seeds (ecotype Col-0); test: Leaf 3 area and epidermal cell analysis of plants from treated seeds; assay type: in vivo; conditions: 50 μM at seed level, carrier 0.1% DMSO
Description: For the leaf area analysis, 3rd true leaves were harvested from all the replicates and then the leaves were cleared in 100% ethanol, mounted in lactic acid on microscope slides, and photographed. Leaf areas were measured with the ImageJ software (http://rsb.info.nih.gov//ij/). Abaxial epidermal cells were drawn with a DMLB microscope (Leica) fitted with a drawing tube and a differential interference contrast objective. Drawings were scanned and analyzed using automated image analysis algorithms (Andriankaja et al. 2012). Subsequently, drawings were used to measure average cell size, from which the total pavement cell number was calculated. The stomatal index was defined as the percentage of stomata in relation to the number of epidermal cells. Statistical analysis was performed with SAS (Version 9.4 of the SAS System for windows 7 64 bit by using the mixed model analysis. Copyright C 2002-2012 SAS Institute Inc. Cary, NC, USA (www.sas.com). Finally, the ratio of leaf 3 area, pavement cell area, pavement cell number and stomata index measured on plants treated at seed level with 50 μM NOSH compared with plants received from carrier-treated seeds (seeds treated with 0.1% DMSO) were determined, the results of which is provided in FIG. 4 (values are averages of three biological repeats, with each repeat consisting of 6-8 plants).

[7] = control and high salinity conditions, 50 μM seed priming

Row | Compound | dissolution directly in 0.1% DMSO [1] | concentration resulting in highest increase in fresh weight [2] [µM] | fruit dry weight [3, 7] | fruit fresh weight [3, 7] | fruit yield per plant ([3]; control conditions) | fruit yield per plant ([3]; high salinity conditions (7.8-12.0 dS/m)) | average leaf area [4] | total plant leaf area [4] | survival percentage of plants ([4]; vs untreated, hydroprimed, solvent-treated seeds) | growth of the leaves ([2]; 50 μM, seeds soaked 12 hr, 22 DAS, vs no NOSH treatment) | fresh weight of rosettes, ratio to carrier-treated seeds ([2]; 50 μM, seeds soaked 12 hr, 22 days, p value 0.0001) | projected rosette area (PRA) ratio, treated seeds vs carrier-treated seeds ([2]; seeds exposed before germination, carrier 0.1% DMSO) [fold] | promoting growth following treatment at the seed level ([2]; treatment of seeds before germination) | seed germination after soaking ([5]; NOSH composition comprising 30% methanol, soaking 4 h, 12 h and 24 h, attributed to high percentage of methanol) | plant phenotype / tolerance after drought ([5]; composition with 30% methanol, vacuum infiltration 90 sec, un-watered 7 days after 37 days, vs carrier-treated drought plants) | leaf 3 area, ratio to carrier-treated seeds [6] | pavement cell area, ratio to carrier-treated seeds [6] | pavement cell number, ratio to carrier-treated seeds [6] | stomata index, ratio to carrier-treated seeds [6]
1 | O=C(CCCO[N+](=O)[O-])Oc1ccccc1C(=O)Oc1ccc(-c2cc(=S)ss2)cc1 [NOSH-ASA] | did not completely dissolve | 10 | significant improvements | significant improvements | significant improvement | significant improvement | significant improvements | significant improvements | clear improvement | – | – | – | – | – | – | – | – | – | –
2 | O=C(CCCO[N+](=O)[O-])Oc1ccc(-c2cc(=S)ss2)cc1 [NOSH] | did not completely dissolve | 50 | – | – | – | – | – | – | – | increased growth of the leaves | statistically significant (p values indicated in the Figures) increase | > 1.5 | more effective in promoting growth as compared to NOSH-NSAID | no seed germination | greener and with less anthocyanin on the leaves | statistically significant (p values indicated in the Figures) increase | statistically significant (p values indicated in the Figures) increase | statistically significant (p values indicated in the Figures) increase | statistically significant (p values indicated in the Figures) increase
